Measured values from BindingDB's records for doi:10.1016/j.bmcl.2004.10.092 (F. Hoffmann-La Roche, 2005).

Columns and labels:
Assay in all cases: Serine Protease Inhibition Assay
[1] = target: Coagulation factor X (Homo sapiens, UniProt P00742)
Procedure: (§1) The enzyme reactions were initiated by the addition of substrate, and the color developed from the release of p-nitroanilide from each chromogenic substrate was monitored continuously for 5 min at 405 nm on a microtiter plate reader. […] The apparent Ki values were then calculated according to the Cheng-Prusoff equation: Ki = IC50/1 + [S]/Km.

[2] = target: Prothrombin (Homo sapiens, UniProt P00734)
Procedure: as §1

[3] = target: T1, Serine protease 1 (Bos taurus, UniProt P00760)
T1 sequence (P00760 whole entry): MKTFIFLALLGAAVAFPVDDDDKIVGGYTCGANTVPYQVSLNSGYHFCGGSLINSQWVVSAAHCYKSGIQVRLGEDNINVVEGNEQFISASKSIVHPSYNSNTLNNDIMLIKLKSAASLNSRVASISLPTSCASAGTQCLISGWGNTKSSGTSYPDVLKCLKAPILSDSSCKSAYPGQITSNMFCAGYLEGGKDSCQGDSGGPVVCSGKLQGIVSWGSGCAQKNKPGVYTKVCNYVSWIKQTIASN
Procedure: as §1

[4] = target: T2, Coagulation factor VII (Homo sapiens, UniProt P08709); conditions: pH 7.8; 22 °C
T2 sequence (P08709 whole entry): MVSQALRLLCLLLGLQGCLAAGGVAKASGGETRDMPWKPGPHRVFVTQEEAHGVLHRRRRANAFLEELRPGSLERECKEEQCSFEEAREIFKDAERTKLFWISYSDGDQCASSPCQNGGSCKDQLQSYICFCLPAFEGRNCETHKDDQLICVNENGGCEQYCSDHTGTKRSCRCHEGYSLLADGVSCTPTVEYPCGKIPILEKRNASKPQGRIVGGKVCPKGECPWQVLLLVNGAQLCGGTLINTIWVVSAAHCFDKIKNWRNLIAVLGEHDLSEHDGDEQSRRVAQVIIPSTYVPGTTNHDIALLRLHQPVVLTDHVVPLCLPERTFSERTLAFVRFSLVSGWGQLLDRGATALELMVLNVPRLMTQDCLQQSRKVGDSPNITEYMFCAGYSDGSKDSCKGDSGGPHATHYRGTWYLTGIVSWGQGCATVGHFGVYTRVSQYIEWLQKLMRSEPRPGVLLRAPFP
Procedure: as §1

Sequence of Coagulation factor X (P00742 41-179 limits assumed): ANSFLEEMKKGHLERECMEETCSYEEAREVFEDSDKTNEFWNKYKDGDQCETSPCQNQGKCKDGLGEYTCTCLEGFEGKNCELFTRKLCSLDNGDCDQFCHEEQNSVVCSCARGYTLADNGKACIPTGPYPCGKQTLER
Sequence of Coagulation factor X (P00742 235-488 limits assumed): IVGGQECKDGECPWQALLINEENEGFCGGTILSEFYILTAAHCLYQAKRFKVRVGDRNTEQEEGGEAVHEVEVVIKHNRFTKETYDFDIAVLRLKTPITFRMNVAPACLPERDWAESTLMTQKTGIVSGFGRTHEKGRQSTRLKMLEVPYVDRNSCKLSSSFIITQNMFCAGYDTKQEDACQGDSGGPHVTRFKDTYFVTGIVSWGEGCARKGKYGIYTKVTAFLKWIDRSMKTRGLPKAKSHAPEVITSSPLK

## COc1cc(C(Nc2ccc(C(=N)N)cc2)C(=O)N[C@H](C(=O)O)c2ccccc2)c(S(=O)(=O)c2ccccc2)cc1OCc1ccccc1 (some centres not stated) [phenylglycine amide compound 10]
[1]
  Ki: 12400 nM
[2]
  Ki: 540 nM
[3]
  Ki: 50 nM

## COc1cc(C(Nc2ccc(C(=N)N)cc2)C(=O)N[C@H](C(=O)O)c2ccccc2)c(C(=O)Cc2ccccc2)cc1OCc1ccccc1 (stereo partly drawn) [(2S)-2-{2-[4-(benzyloxy)-5-methoxy-2-(2-phenylacetyl)phenyl]-2-[(4-carbamimidoylphenyl)amino]acetamido}-2-phenylacetic acid]
[4]
  Ki: 7 nM
[1]
  Ki: 19000 nM
[2]
  Ki: 6400 nM
[3]
  Ki: 80 nM
